According to patent US20240316130A1 (priority 2023, published 2024):
Entries after “also recorded” stand apart in the source; their conditions may differ.

Test system: ASS1^KO B16F10 cells
Type: cell-based, murine

Row | Structure (SMILES) | rescue of MYXV replication by supplement
1 | NC(=NCCCC(N)C(=O)O)NC(CC(=O)O)C(=O)O (centres unmarked) [argininosuccinate] | support myxoma virus replication; also recorded: remained rescuable
2 | NC(=O)NCCC[C@H](N)C(=O)O [citrulline, L-Citrulline] | not able to divide or support myxoma virus replication; also recorded: could no longer be rescued
